Where two headings read alike, the source gives them in different places. Positions of bridges follow the written chain, without caps; N, C: chain ends. Residues, ends and D or L forms follow the SMILES beside them. No end group written: not given here.
Tests used:
Assay type in all cases: cell-based
[1] = system: mouse neuroblastoma cell line (N1E-115); settings: for antitumor activity (tumor cell proliferation-inhibiting activity), in words: N1E-115, 50 or 100 μM, summary of Table 3; for A450(-A620) After 24 hers: WST-8 absorbance after 24 hours
Method: Some of the sample peptides obtained in Example 1 were tested for antitumor activity against target cultured tumor cells. Details of the assay are as described below.
(§1) As the tumor cells tested, a commercial mouse neuroblastoma cell line (N1E-115) was used. The cell line was cultured beforehand in a DMEM medium (i.e. Dulbecco MEM medium (DMEM medium, a Gibco product) containing 10% fetal bovine serum (FBS, a Gibco product), 2 mM of L-glutamine, 50 unit/mL of penicillin, and 50 μg/mL of streptomycin), and the number of cells per well in a 96-well plate was adjusted to approximately 5×10^3. The volume of the medium for this was 100 μL per well.
(§2) Subsequently, the stock solution of each sample peptide shown in Table 3 was added to each well to a peptide concentration in the well of 50 μM or 100 μM.
(§3) After the sample peptides were added as described above, the 96-well plate was placed in a CO2 incubator and cultured without agitation at 37° C. under 5% CO2. At the time of the peptide addition (at the start of treatment) and at 6 hours or 24 hours from the peptide addition and the start of incubation, the viability status of the cultured cells tested was analyzed with a commercial colorimetric assay kit. In particular, to each cell-culturing well, “water-soluble tetrazolium salt (WST-8)” was added as a colorimetric reagent; after two hours of incubation following the addition, the cell culture medium supplied with the colorimetric reagent was collected; and the level of inhibition of cell proliferation was evaluated by colorimetry, measuring the absorbance at a wavelength of 450 nm (values corrected with the absorbance at a wavelength of 620 nm, A450-A620) based on reduction of tetrazolium salt. Based on the absorbance at the time of the sample peptide addition (at the start of treatment), the percent decrease in the absorbance after 6 hours or 24 hours was determined as the cell proliferation inhibition rate (%).

[2] = system: human alveolar basal epithelial adenocarcinoma cells, A549; settings: for A450(-A620) After 24 hers: A549, peptide 50 μM, WST-8 absorbance after 24 hours; for antitumor activity (tumor cell proliferation-inhibiting activity), in words: A549, 50 μM, 24 hours, summary of Table 5
Method: as §1, §2, §3
Cells forming a […] (human alveolar basal epithelial adenocarcinoma cells, A549) were substituted for the tumor cells tested and the same test as Example 2 described above was carried out. In the present example, the peptides of Samples 1 to 13, 15 to 22, 24, 29, 35 and 40 were used.

HeLa cells (HeLa S3) = settings: WST-8 absorbance after 24 hours
Method: as §1, §2, §3
HeLa cells (HeLa S3) were substituted for the tumor cells tested and the same test as Example 2 described above was carried out. In the present example, the peptides of Samples 1 to 7, 9, 10, 13, 16, 21 and 35 were used.

Compound	antitumor activity (tumor cell proliferation-inhibiting activity), in words [1]	A450(-A620) After 24 hers ([1]; N1E-115, peptide 50 μM)	A450(-A620) After 24 hers ([1]; N1E-115, peptide 100 μM)	A450(-A620) After 24 hers [2]	further results
EFEYFHPATFRLKKRTLRKNDRKKR [Sample 42]	high antitumor activity	0.5145	0.4114		
QSPVNHHYHYHI [Sample 17, QSPVNHHYHYHI]		0.6019	0.5818	1.9428	
N=C(N)NCCC[C@@H]1NC(=O)[C@H](Cc2c[nH]cn2)NC(=O)CNC(=O)[C@@H](N)CSSC[C@@H](C(=O)O)NC(=O)[C@H](Cc2ccc(O)cc2)NC(=O)[C@H](CCC(N)=O)NC(=O)[C@H](Cc2ccc(O)cc2)NC(=O)[C@@H]2CCCN2C1=O [Sample 4, CGHRPYQYC] (H-CGHRPYQYC-OH; disulfide 1-9; N-terminus and C-terminus assumed)				1.7663	A450(-A620) After 24 hers (HeLa cells (HeLa S3); HeLa S3, peptide 50 μM): 0.0955; A450(-A620) After 24 hers (HeLa cells (HeLa S3); HeLa S3, peptide 100 μM): 0.0937
CSCC[C@@H]1NC(=O)[C@@H]2CCCN2C(=O)[C@H](CCCNC(=N)N)NC(=O)[C@H](CCCCN)NC(=O)[C@H](CCC(=O)O)NC(=O)[C@H](Cc2ccc(O)cc2)NC(=O)[C@H](CO)NC(=O)[C@@H](N)CSSC[C@@H](C(=O)O)NC1=O [Sample 11, CSYEKRPMC] (H-CSYEKRPMC-OH; disulfide 1-9; N-terminus and C-terminus assumed)				1.6741	antitumor activity (tumor cell proliferation-inhibiting activity), in words [2]: high antitumor activity
CC[C@H](C)[C@@H]1NC(=O)[C@H](CCC(=O)O)NC(=O)[C@@H](N)CSSC[C@@H](C(=O)O)NC(=O)[C@H]([C@@H](C)O)NC(=O)[C@H](CCCNC(=N)N)NC(=O)[C@H](CCCCN)NC(=O)[C@H](C)NC(=O)[C@H](CO)NC1=O [Sample 7, CEISAKRTC] (H-CEISAKRTC-OH; disulfide 1-9; N-terminus and C-terminus assumed)				1.6822	A450(-A620) After 24 hers (HeLa cells (HeLa S3); HeLa S3, peptide 50 μM): 0.1508; A450(-A620) After 24 hers (HeLa cells (HeLa S3); HeLa S3, peptide 100 μM): 0.1081
CC(C)C[C@H](NC(=O)[C@@H](NC(=O)[C@H](CCCNC(=N)N)NC(=O)[C@H](CCCCN)NC(=O)[C@H](CCCCN)NC(=O)[C@@H]1CSSC[C@H](N)C(=O)N[C@@H](CO)C(=O)N[C@@H](CO)C(=O)N[C@@H](C)C(=O)N[C@@H]([C@@H](C)O)C(=O)NCC(=O)N[C@@H](CCCCN)C(=O)N[C@@H](CO)C(=O)N1)[C@@H](C)O)C(=O)N[C@@H](CCCNC(=N)N)C(=O)N[C@@H](CCCCN)C(=O)N[C@@H](CC(N)=O)C(=O)N[C@@H](CC(=O)O)C(=O)N[C@@H](CCCNC(=N)N)C(=O)N[C@@H](CCCCN)C(=O)N[C@@H](CCCCN)C(=O)N[C@@H](CCCNC(=N)N)C(=O)O [Sample 23] (H-CSSATGKSCKKRTLRKNDRKKR-OH; disulfide 1-9; N-terminus and C-terminus assumed)	high antitumor activity	0.4127	0.3841		
NMTTYPMHNNTV [Sample 18, NMTTYPMHNNTV]		0.6054	0.5999	1.6767	
CC(C)C[C@@H]1NC(=O)[C@@H](N)CSSC[C@@H](C(=O)O)NC(=O)[C@H](CO)NC(=O)[C@H]([C@@H](C)O)NC(=O)[C@H](Cc2ccc(O)cc2)NC(=O)[C@H](CO)NC(=O)[C@H](CCCCN)NC(=O)[C@H]([C@@H](C)O)NC1=O [Sample 12, CLTKSYTSC] (H-CLTKSYTSC-OH; disulfide 1-9; N-terminus and C-terminus assumed)				1.9165	
CC(C)C[C@H](NC(=O)[C@@H](NC(=O)[C@H](CCCNC(=N)N)NC(=O)[C@H](CCCCN)NC(=O)[C@H](CCCCN)NC(=O)[C@@H]1CSSC[C@H](N)C(=O)N[C@@H](CC(C)C)C(=O)N[C@@H](C)C(=O)N2CCC[C@H]2C(=O)N[C@@H](CO)C(=O)N2CCC[C@H]2C(=O)N[C@@H](CO)C(=O)N[C@@H](CCCCN)C(=O)N1)[C@@H](C)O)C(=O)N[C@@H](CCCNC(=N)N)C(=O)N[C@@H](CCCCN)C(=O)N[C@@H](CC(N)=O)C(=O)N[C@@H](CC(=O)O)C(=O)N[C@@H](CCCNC(=N)N)C(=O)N[C@@H](CCCCN)C(=O)N[C@@H](CCCCN)C(=O)N[C@@H](CCCNC(=N)N)C(=O)O [Sample 24] (H-CLAPSPSKCKKRTLRKNDRKKR-OH; disulfide 1-9; N-terminus and C-terminus assumed)	high antitumor activity	0.3492	0.3198	1.5820	antitumor activity (tumor cell proliferation-inhibiting activity), in words [2]: high antitumor activity
EFEYFHPATFRL [Sample 20, EFEYFHPATFRL]		0.5772	0.6481	1.8115	
GPHHYWYHLRLPKKRTLRKNDRKKR [Sample 38]	high antitumor activity	0.4605	0.3592		
CC(C)C[C@H](NC(=O)[C@@H](NC(=O)[C@H](CCCNC(=N)N)NC(=O)[C@H](CCCCN)NC(=O)[C@H](CCCCN)NC(=O)[C@@H]1CSSC[C@H](N)C(=O)NCC(=O)N[C@@H](Cc2c[nH]cn2)C(=O)N[C@@H](CCCNC(=N)N)C(=O)N2CCC[C@H]2C(=O)N[C@@H](Cc2ccc(O)cc2)C(=O)N[C@@H](CCC(N)=O)C(=O)N[C@@H](Cc2ccc(O)cc2)C(=O)N1)[C@@H](C)O)C(=O)N[C@@H](CCCNC(=N)N)C(=O)N[C@@H](CCCCN)C(=O)N[C@@H](CC(N)=O)C(=O)N[C@@H](CC(=O)O)C(=O)N[C@@H](CCCNC(=N)N)C(=O)N[C@@H](CCCCN)C(=O)N[C@@H](CCCCN)C(=O)N[C@@H](CCCNC(=N)N)C(=O)O [Sample 26] (H-CGHRPYQYCKKRTLRKNDRKKR-OH; disulfide 1-9; N-terminus and C-terminus assumed)	high antitumor activity	0.4550	0.3643		
CC[C@H](C)[C@@H]1NC(=O)[C@H](CCC(=O)O)NC(=O)[C@@H](N)CSSC[C@@H](C(=O)N[C@@H](CCCCN)C(=O)N[C@@H](CCCCN)C(=O)N[C@@H](CCCNC(=N)N)C(=O)N[C@H](C(=O)N[C@@H](CC(C)C)C(=O)N[C@@H](CCCNC(=N)N)C(=O)N[C@@H](CCCCN)C(=O)N[C@@H](CC(N)=O)C(=O)N[C@@H](CC(=O)O)C(=O)N[C@@H](CCCNC(=N)N)C(=O)N[C@@H](CCCCN)C(=O)N[C@@H](CCCCN)C(=O)N[C@@H](CCCNC(=N)N)C(=O)O)[C@@H](C)O)NC(=O)[C@H]([C@@H](C)O)NC(=O)[C@H](CCCNC(=N)N)NC(=O)[C@H](CCCCN)NC(=O)[C@H](C)NC(=O)[C@H](CO)NC1=O [Sample 29] (H-CEISAKRTCKKRTLRKNDRKKR-OH; disulfide 1-9; N-terminus and C-terminus assumed)				1.6577	antitumor activity (tumor cell proliferation-inhibiting activity), in words [2]: high antitumor activity
GAVTYSRISGQY [Sample 22, GAVTYSRISGQY]				1.9711	
SLLPHSNHAKHY [Sample 19, SLLPHSNHAKHY]				1.8271	
GPHLGMNQRRRPKKRTLRKNDRKKR [Sample 43]	high antitumor activity	0.4784	0.4110		
NMTTYPMHNNTVKKRTLRKNDRKKR [Sample 40]				1.5890	antitumor activity (tumor cell proliferation-inhibiting activity), in words [2]: high antitumor activity
CC[C@H](C)[C@@H]1NC(=O)[C@H](Cc2c[nH]cn2)NC(=O)[C@@H](N)CSSC[C@@H](C(=O)O)NC(=O)[C@H](C)NC(=O)[C@H](CCC(N)=O)NC(=O)[C@H](C)NC(=O)[C@H](Cc2c[nH]cn2)NC(=O)[C@H](CC(C)C)NC1=O [Sample 8, CHILHAQAC] (H-CHILHAQAC-OH; disulfide 1-9; N-terminus and C-terminus assumed)				1.7885	
TPSLPPTMFRLT [Sample 15, TPSLPPTMFRLT]				1.6022	
